In patent US20240294595A1, “GLYCOPEPTIDES AND USES THEREOF” (Arizona Board of Regents on Behalf of the University of …, priority 2013, published 2024):
Entries after “also recorded” stand apart in the source; their conditions may differ. Blank lines part the entries; values can stand above or below the compound they belong to. Where no end group is shown, it is not given here.

Columns and labels:
[1] = test system: 6-OHDA hemi-parkinsonian rat model; assay: moderate (40%) 6-OHDA hemi-parkinsonian rat model (study 2); format: in vivo
Source text: In a follow-up study, the neuroprotective potential of 2LS98Lac was also probed in rats with more severe (40%) 6-OHDA-induced lesions and three treatment-injections with 2LS98Lac (FIG. 9B).
Specifically, 6-OHDA did lead to reduction of % area IBA-1/cell (F3-24=4.463, p=0.0140; FIG. 9K), process length/cell (F3-24=5.925, p=0.0057; FIG. 9L), branches/cell (F3-24=5.845, p=0.0042; FIG. 9M), and endpoints/cell (F3-24=2.943, p=0.0286; FIG. 9N) on the lesioned side. Treatment with 2LS98Lac did lead to an increase of the parameters on the lesioned side back to levels on the intact side. […] Example images for the nigral IHC for TH and for IBA-1, as well as the semi-quantitative western analyses of striatal TH and beta-actin are presented in FIGS. 10A-D.

[2] = test system: 6-OHDA hemi-parkinsonian rat model; assay: mild (25%) 6-OHDA hemi-parkinsonian rat model (study 1); format: in vivo
Source text: The classical mild progressive 6-OHDA hemi-parkinsonian rat model was used to assess the neuroprotective potential of 2LS98Lac (FIGS. 9A,B). Briefly, the rats were given unilateral lesions by treatment with 6-OHDA. Then, the rats were challenged with a dopaminergic receptor agonist (amphetamine in our case) and assessed for their turning behavior (Kelly et al., 1975; Torres and Dunnet, 2007; DaCunha et al., 2008) The observed rotational behavior is likely due to the denervation of dopaminergic neurons and subsequent hypersensitivity of the dopaminergic receptors in the lesioned area of the brain. In the first experiment, mild lesions (25%) were induced (FIG. 9A) to simulate the early stages of PD, and amphetamine was used to induce […] rotations. Rats were treated with either vehicle or 2LS98Lac (15 mg/kg, i.p.) 6 h prior to lesioning and 24 h post-lesion. […] Following behavioral analysis, the number of tyrosine hydroxylase (TH)-positive neurons in the SNpc of both vehicle-treated and 2LS98Lac-treated animals was determined using immunohistochemical staining and unbiased stereology. […] Both behavioral and histological data obtained from these experiments indicate that 2LS98Lac successfully elicited neuroprotection.

[3] = rat, serum
PAC1 [4] = target: T1, PAC1 (Homo sapiens, UniProt P41586); assay: PAC1-CHO calcium flux, FLIPR antagonist mode versus PACAP1-27; format: cell-based; parameters: host or cells: CHO (clonal line PAC1-CHO)
T1 sequence (P41586 21-468): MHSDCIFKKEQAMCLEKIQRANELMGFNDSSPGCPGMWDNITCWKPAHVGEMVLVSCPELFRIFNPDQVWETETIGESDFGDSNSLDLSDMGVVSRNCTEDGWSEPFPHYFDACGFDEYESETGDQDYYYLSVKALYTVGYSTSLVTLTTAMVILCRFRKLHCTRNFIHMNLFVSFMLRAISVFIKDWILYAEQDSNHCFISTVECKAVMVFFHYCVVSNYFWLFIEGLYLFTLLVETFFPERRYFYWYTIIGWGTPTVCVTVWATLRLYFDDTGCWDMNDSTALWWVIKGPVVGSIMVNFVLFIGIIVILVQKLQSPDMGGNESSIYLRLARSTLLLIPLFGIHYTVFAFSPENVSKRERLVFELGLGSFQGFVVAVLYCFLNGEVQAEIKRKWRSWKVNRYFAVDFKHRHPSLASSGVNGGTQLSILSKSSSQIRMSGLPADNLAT
Procedure: The construct was electroporated into Chinese Hamster Ovary (CHO) cells, and selected for with 500 μg/mL of G418. The resulting population was screened for high expressing clones, and one such clone selected for further analysis. […] This cell line was used for all molecular pharmacology experiments. […] All molecular pharmacology experiments were carried out using a FLIPR Tetra from Molecular Devices (Sunnyvale, CA), set to image calcium flux using the manufacturer's recommended settings and protocols. […] The cells were recovered overnight in growth medium (as above). The next day, the growth medium was replaced with Calcium 6 dye (Molecular Devices) using the manufacturer recommended buffer with 2.5 mM probenecid. […] The resulting calcium flux was recorded, and the maximum-minimum response over the entire observation time calculated and reported as the mean±SEM (4 wells per point). For antagonist mode experiments, a concentration curve (variable concentration mode) or fixed amount (fixed concentration mode) of antagonist was added to the cells, and allowed to equilibrate for 2 minutes. […] The resulting data was analyzed using a Gaddum/Schild EC50 shift model, (Schild, 1957, Gaddum, 1957) designed to analyze competitive antagonism. (Lazareno and Birdsall, 1993) The data output was the pA2 (nM) and the Schild Slope, a measure of how closely the experimental data fits the operational model of competitive antagonism (Prism). For all analyses, each independent experiment performed in quadruplicate is considered to be a sample size of 1. The pharmacology values are calculated separately from each experiment, then combined and reported as the mean±SEM for the entire set of experiments.

PAC1 [5] = target: T1, PAC1; settings: previously reported; cited from earlier work
[6] = stability in mouse serum at 37° C. (FI-MSn); format: in vitro ADME; settings: mouse serum at 37° C.
Source text: Chemical stability of the glycopeptides in vivo plays an important role in the deliverability of the drugs to the site(s) of action within the brain. It is also important to know what the chemical or metabolic instabilities are in order to inform the drug design process. […] Data were fitted using a single exponential decay model (R^2>0.71, in all cases).
The overall process was as follows: Flow-injection tandem mass spectrometry (FI-MS^n) was used to observe the degradation of the peptides and glycopeptides with a Thermo LCQ with electrospray ionization (ESI). The technique involved injection of a sample bolus of material in mouse serum via a six port valve with fluid flow delivered via a syringe pump, and subsequent electrospray ionization (ESI) followed by mass spectral analysis. Samples were diluted to a concentration of ˜5 μM of each PACAP analogue, and were incubated at 37° C. for times varying from 1 to 60 minutes. After samples had been incubated for the prescribed amount of time they were prepared for mass spectrometry analysis by withdrawing 10 microliters of solution and spiking with 1 microliter of a 10 μM solution of peptide internal standard (angiotensin II) in 50% acetic acid and subjecting them to a standard C18 zip tip desalting. These solutions, once eluted from the zip tip were diluted to 100 μL in 50:50 acetonitrile/water with 0.1% formic acid. Tandem mass spectrometry analysis (MS^3) was conducted to yield specific, quantitative signals proportional to the amount of PACAP analogue at each time point. This technique was also used with microdiasylate samples from a mouse after i.p. administration of PACAP1-27-S-G.

PC12 cells = assay: PC12 cell morphology / neurite outgrowth; format: cell-based; settings: 100 nM
Procedure: PC12 cells are non-adherent cells, and in spite of using the poly-D-Lysine coated plates, the majority of the cells remained suspended. During the media exchange many of the cells were removed with the spent media. The remaining cells could be visually evaluated for qualitative morphological changes at the end of the treatment period, but meaningful cell quantification could not be done reliably using this approach.
FIGS. 5A-5D show PC12 Cell Morphology after Vehicle vs PACAP Treatment (100 nM). […] In all cases the process outgrowths on the treated cells were greater than 2× the cell body width
The PC12 cells were cultured in RPMI containing 5% heat inactivated fetal bovine serum and 10% horse serum in the presence of 100 units/mL penicillin and 100 microgram/mL streptomycin. The cells were plated on poly-D-Lysine coated 6-well tissue culture plates at a density of 150,000 cells per well in 2 mL media. After 48 hours at 37° C. in 5% CO2 atmosphere, media exchange was performed and plates were dosed, using the peptide diluent (water) for the control samples. […] Cell images of each treatment group were captured and compared to the control cells to screen for differentiation and cell body volume increases. Cells having neurite-like process outgrowth were noted and photographed. The neurite-like outgrowth was deemed positive if its length was at least two times the width of the cell body.

[7] = lesioned side, treatment vs vehicle
[8] = three treatment-injections, vs vehicle
[9] = treatment vs vehicle, listed as 2LS98lac

Compound: 2LS98Lac: PACAP glycopeptide; 2LS98 = HSDGIFTDSYSRYRKQLAVKKYLAAVL-Ser-CONH2 (SEQ ID NO: 7), lactose (HSDGIFTDSYSRYRKQLAVKKYLAAVLS; not fully specified; lactose glycosylation, C-terminal amide) [Compound 2LS98Lac]
6-OHDA-induced change in microglia morphologic phenotype ([1]; lesioned side): fully reversed
% area IBA-1/cell [1, 7]: significant increase
branches/cell [1, 7]: significant increase
endpoints/cell [1, 7]: trend toward increase
process length/cell [1, 7]: significant increase
6-OHDA-induced change in microglia morphologic phenotype ([1]; lesioned side, listed as 2LS98lac): rescues 6-OHDA induced morphological changes to microglia
nigral TH-cell count on the lesioned side ([1]; moderate lesion): 9,244 cells
mean increase of nigral TH-cell count on the lesioned side vs vehicle group ([1]; not significant (p=0.2208)): 850 cells
amphetamine-induced rotations at 2 weeks post-lesion [1, 8]: did not see a difference; also recorded: does not reduce 6-OHDA-induced lesion damage
amphetamine-induced rotations at 4 weeks post-lesion [1, 8]: did not see a difference; also recorded: does not reduce 6-OHDA-induced lesion damage
striatal DA content ([1]; treatment vs vehicle): no significant difference
striatal TH (western analysis) ([1]; treatment vs vehicle): no significant difference
striatal DA content [1, 9]: did not change
striatal TH (western analysis) [1, 9]: did not change
cumulative amphetamine-induced contralateral rotations ([2]; 15 mg/kg i.p. 6 h prior and 24 h post-lesion, vs vehicle): significantly decreased; also recorded: reduces 6-OHDA-induced lesion damage
TH-positive neurons in the SNpc, lesioned vs intact side ([2]; 15 mg/kg i.p., mild lesion): neuronal cell death was attenuated

half-life [3]: > 1 h
Compound: CC[C@H](C)[C@H](NC(=O)CNC(=O)[C@H](CC(=O)O)NC(=O)[C@H](CO)NC(=O)[C@@H](N)Cc1c[nH]cn1)C(=O)N[C@@H](Cc1ccccc1)C(=O)N[C@H](C(=O)N[C@@H](CC(=O)O)C(=O)N[C@@H](CO)C(=O)N[C@@H](Cc1ccc(O)cc1)C(=O)N[C@@H](CO)C(=O)N[C@@H](CCCNC(=N)N)C(=O)N[C@@H](Cc1ccc(O)cc1)C(=O)N[C@@H](CCCNC(=N)N)C(=O)N[C@@H](CCCCN)C(=O)N[C@@H](CCC(N)=O)C(=O)N[C@@H](CC(C)C)C(=O)N[C@@H](C)C(=O)N[C@H](C(=O)N[C@@H](CCCCN)C(=O)N[C@@H](CCCCN)C(=O)N[C@@H](Cc1ccc(O)cc1)C(=O)N[C@@H](CC(C)C)C(=O)N[C@@H](C)C(=O)N[C@@H](C)C(=O)N[C@H](C(=O)N[C@@H](CC(C)C)C(=O)N[C@@H](CO[C@@H]1O[C@H](CO)[C@@H](O[C@@H]2O[C@H](CO)[C@H](O)[C@H](O)[C@H]2O)[C@H](O)[C@H]1O)C(N)=O)C(C)C)C(C)C)[C@@H](C)O [Compound 2LS80Lac]

Kb (PAC1 [4]; Gaddum/Schild EC50 shift model, read-out: pA2 (converted)): 201 ± 55.4 nM
IC50 (PAC1 [4]; read-out: antagonism potency (IC50), variable concentration mode): > 333 nM
Compound: CSCC[C@H](NC(=O)[C@H](CCC(N)=O)NC(=O)[C@H](CCCCN)NC(=O)[C@H](CCCNC(=N)N)NC(=O)[C@H](Cc1ccc(O)cc1)NC(=O)[C@H](CCCNC(=N)N)NC(=O)[C@H](CO)NC(=O)[C@H](Cc1ccc(O)cc1)NC(=O)[C@H](CO)NC(=O)[C@H](CC(=O)O)NC(=O)[C@@H](NC(=O)[C@@H](N)Cc1ccccc1)[C@@H](C)O)C(=O)N[C@@H](C)C(=O)N[C@H](C(=O)N[C@@H](CCCCN)C(=O)N[C@@H](CCCCN)C(=O)N[C@@H](Cc1ccc(O)cc1)C(=O)N[C@@H](CC(C)C)C(=O)N[C@@H](C)C(=O)N[C@@H](C)C(=O)N[C@H](C(=O)N[C@@H](CC(C)C)C(=O)NCC(=O)N[C@@H](CCCCN)C(=O)N[C@@H](CCCNC(=N)N)C(=O)N[C@@H](Cc1ccc(O)cc1)C(=O)N[C@@H](CCCCN)C(=O)N[C@@H](CCC(N)=O)C(=O)N[C@@H](CCCNC(=N)N)C(=O)N[C@H](C(=O)N[C@@H](CCCCN)C(=O)N[C@@H](CC(N)=O)C(=O)N[C@@H](CCCCN)C(N)=O)C(C)C)C(C)C)C(C)C [PACAP6-38]
Ki (PAC1 [5]): 1.5 nM

Compound: PACAP1-27-S-L: the corresponding lactoside of PACAP1-27 (HSDGIFTDSYSRYRKQMAVKKYLAAVLS; not fully specified)
degradation in mouse serum [6]: degraded over 30 min
cell body volumes (PC12 cells): showed increases

antagonist activity, variable concentration mode (PAC1 [4]; versus 5 nM PACAP1-27, concentration up to 1 μM): no significant antagonist activity
Compound: PACAP6-27: truncated putative antagonist (FTDSYSRYRKQMAVKKYLAAVL; ends and bridges not checked)
shift of PACAP1-27 agonist curves, fixed concentration mode (PAC1 [4]; fixed antagonist concentrations up to 1 μM): no detectable shifts in the agonist curves; also recorded: caused no shift in the agonist curves
Ki (PAC1 [5]): 60 nM
